In patent US20070128217A1 (priority 2003, published 2007):

Experiments:
[1] = test system: antibodies in sera from SARS patients (sera 1a, 1b, 2, 6, 37, 62, London, SARS-yellow, SARS-green); assay type: binding, human; set-up: Binding of serum 6 to linear peptides of protein X1 of SARS-CoV Urbani / Binding of serum 37 to linear peptides of protein X1 of SARS-CoV Urbani / Binding of serum 6 to looped/cyclic peptide (PEPSCAN-ELISA) / Binding of serum 37 to looped/cyclic peptide (PEPSCAN-ELISA) / Binding of serum 37 to looped/cyclic peptides of protein X1 of SARS-CoV Urbani / Binding of serum 6 to linear peptides of protein X2 / Binding of serum 37 to linear peptides of protein X2 / Binding of serum 37 to looped/cyclic peptides of protein X2 of SARS-CoV Urbani / Binding of serum 6 to linear peptides of protein M of SARS-CoV Urbani / Binding of serum 37 to linear peptides of protein M of SARS-CoV Urbani / Binding of serum 6 to looped/cyclic peptides of protein M of SARS-CoV Urbani / Binding of serum 37 to looped/cyclic peptides of protein M of SARS-CoV Urbani / Binding of serum 6 to linear peptides of protein X3 of SARS-CoV Urbani / Binding of serum 37 to linear peptides of protein X3 of SARS-CoV Urbani / Binding of serum 37 to looped/cyclic peptides of protein X3 of SARS-CoV Urbani / Binding of serum 6 to linear peptides of protein X4 of SARS-CoV Urbani / Binding of serum 37 to linear peptides of protein X4 of SARS-CoV Urbani / Binding of serum 37 to looped/cyclic peptides of protein X4 of SARS-CoV Urbani / Binding of serum 6 to linear peptides of protein X5 of SARS-CoV Urbani / Binding of serum 37 to linear peptides of protein X5 of SARS-CoV Urbani / Binding of serum 37 to looped/cyclic peptides of protein X5 of SARS-CoV Urbani / Binding of serum 6 to linear peptides of protein N of SARS-CoV Urbani / Binding of serum 37 to linear peptides of protein N of SARS-CoV Urbani / Binding of serum 6 to linear peptide (PEPSCAN-ELISA) / Binding of serum 1a to looped/cyclic peptides of protein N of SARS-CoV Urbani / Binding of serum 1b to looped/cyclic peptides of protein N of SARS-CoV Urbani / Binding of serum 2 to looped/cyclic peptides of protein N of SARS-CoV Urbani / Binding of serum 6 to looped/cyclic peptides of protein N of SARS-CoV Urbani / Binding of serum 37 to looped/cyclic peptides of protein N of SARS-CoV Urbani / Binding of serum 62 to looped/cyclic peptides of protein N of SARS-CoV Urbani / Binding of serum London to looped/cyclic peptides of protein N of SARS-CoV Urbani / Binding of serum SARS-green to looped/cyclic peptides of protein N of SARS-CoV Urbani: unit not given here
[2] = test system: control sera (pooled serum of ten healthy LUMC hospital workers; commercial negative donor pooled serum from the Dutch bloodbank); assay type: binding, human; set-up: Binding of Control serum LUMC to linear peptides / Binding of Control serum Blood-bank to linear peptides / Binding of Control serum LUMC to looped peptides / Binding of Control Serum Blood-Bank to Looped peptides / Binding of Control serum LUMC to linear peptides of the protein M of SARS-CoV Urbani / Binding of Control serum Blood-bank to linear peptides of the protein M of SARS-CoV Urbani / Binding of Control serum LUMC to looped peptides of the protein M of SARS-CoV Urbani / Binding of Control Serum Blood-Bank to Looped peptides of the protein M of SARS-CoV Urbani: unit not given here
[3] = test system: rabbit serum obtained by immunizing a rabbit with the SARS-CoV strain Frankfurt 1; assay type: binding; set-up: Binding of a rabbit serum to linear peptides / Binding of a rabbit serum to looped peptides / Rabbit serum linear peptides / Rabbit serum looped peptides / Binding of a rabbit serum to linear peptides of protein N of SARS-CoV Urbani (Rabbit serum linear peptides) / Binding of a rabbit serum to looped/cyclic peptides of protein N of SARS-CoV Urbani (Rabbit serum looped peptides): unit not given here

In the case of LTSLLKTHRMCKYTQ, the “Binding of serum 1a to linear peptides of protein X2” value [1] is reported as 0.7, the “Binding of serum 1a to looped/cyclic peptides of protein X2 of SARS-CoV Urbani” value [1] is reported as 0.4 and the “Binding of serum 1b to linear peptides of protein X2” value [1] is reported as 0.3. The “Binding of serum 1b to looped/cyclic peptides of protein X2 of SARS-CoV Urbani” value [1] was 0.3, the “Binding of serum 2 to linear peptides of protein X2” value [1] was 0.5 and the “Binding of serum 2 to looped/cyclic peptides of protein X2 of SARS-CoV Urbani” value [1] was 0.2. For the same sequence, the “Binding of serum 6 to linear peptides of protein X2” value [1] was 0.5, the “Binding of serum 6 to looped/cyclic peptides of protein X2 of SARS-CoV Urbani” value [1] was 0.2 and the “Binding of serum 37 to linear peptides of protein X2” value [1] was 0.6. The “Binding of serum 37 to looped/cyclic peptides of protein X2 of SARS-CoV Urbani” value [1] was 0.3, the “Binding of serum 62 to linear peptides of protein X2” value [1] was 0.6 and the “Binding of serum 62 to looped/cyclic peptides of protein X2 of SARS-CoV Urbani” value [1] was 0.4. The “Binding of serum London to linear peptides of protein X2” value [1] was 0.5, the “Binding of serum London to looped/cyclic peptides of protein X2 of SARS-CoV Urbani” value [1] was 0.2 and the “Binding of serum SARS-green to linear peptides of protein X2” value [1] was 0.2. For the same sequence, the “Binding of serum SARS-green to looped/cyclic peptides of protein X2 of SARS-CoV Urbani” value [1] was 0.2, the “Binding of serum SARS-yellow to linear peptides of protein X2” value [1] was 0.4 and the “Binding of serum SARS-yellow to looped/cyclic peptides of protein X2 of SARS-CoV Urbani” value [1] was 0.3. The “Binding of Control Serum Blood-Bank to Looped peptides” value [2] was 0.4, the “Binding of Control serum Blood-bank to linear peptides” value [2] was 0.5 and the “Binding of Control serum LUMC to linear peptides” value [2] was 0.4. For the same sequence, the “Binding of Control serum LUMC to looped peptides” value [2] was 0.5, the “Binding of a rabbit serum to linear peptides” value [3] was 0.3 and the “Binding of a rabbit serum to looped peptides” value [3] was 0.4.
With LVFLILCFTIKRKTE the “Binding of serum 1a to linear peptides of protein X4 of SARS-CoV Urbani” value [1] was 0.7, the “Binding of serum 1a to looped/cyclic peptides of protein X4 of SARS-CoV Urbani” value [1] was 0.7 and the “Binding of serum 1b to linear peptides of protein X4 of SARS-CoV Urbani” value [1] was 0.6. For the same sequence, the “Binding of serum 1b to looped/cyclic peptides of protein X4 of SARS-CoV Urbani” value [1] was 0.4, the “Binding of serum 2 to linear peptides of protein X4 of SARS-CoV Urbani” value [1] was 0.5 and the “Binding of serum 2 to looped/cyclic peptides of protein X4 of SARS-CoV Urbani” value [1] was 0.6. The “Binding of serum 6 to linear peptides of protein X4 of SARS-CoV Urbani” value [1] was 0.7, the “Binding of serum 6 to looped/cyclic peptides of protein X4 of SARS-CoV Urbani” value [1] was 0.7 and the “Binding of serum 37 to linear peptides of protein X4 of SARS-CoV Urbani” value [1] was 0.7. The “Binding of serum 37 to looped/cyclic peptides of protein X4 of SARS-CoV Urbani” value [1] was 0.6, the “Binding of serum 62 to linear peptides of protein X4 of SARS-CoV Urbani” value [1] was 0.8 and the “Binding of serum 62 to looped/cyclic peptides of protein X4 of SARS-CoV Urbani” value [1] was 0.7. The “Binding of serum London to linear peptides of protein X4 of SARS-CoV Urbani” value [1] was 0.8, the “Binding of serum London to looped/cyclic peptides of protein X4 of SARS-CoV Urbani” value [1] was 0.4 and the “Binding of serum SARS-green to linear peptides of protein X4 of SARS-CoV Urbani” value [1] was 0.7. The “Binding of serum SARS-green to looped/cyclic peptides of protein X4 of SARS-CoV Urbani” value [1] was 0.2, the “Binding of serum SARS-yellow to linear peptides of protein X4 of SARS-CoV Urbani” value [1] was 0.6 and the “Binding of serum SARS-yellow to looped/cyclic peptides of protein X4 of SARS-CoV Urbani” value [1] was 0.7. The “Binding of Control Serum Blood-Bank to Looped peptides” value [2] was 0.8, the “Binding of Control serum Blood-bank to linear peptides” value [2] was 0.8 and the “Binding of Control serum LUMC to linear peptides” value [2] was 0.6. For the same sequence, the “Binding of Control serum LUMC to looped peptides” value [2] was 0.6, the “Rabbit serum linear peptides” value [3] was 0.5 and the “Rabbit serum looped peptides” value [3] was 0.6.
